Patent US9701670B2, “Pyrazolyl-ureas as kinase inhibitors” (RESPIVERT LIMITED, priority 2013, dated 2017)

Columns and labels:
[1] = target: T1, p38 MAPKα isoform (MAPK14) (Homo sapiens (Human), UniProt Q16539); assay: p38 MAPKα enzyme inhibition (FRET, Z-LYTE), Method 2; assay type: biochemical; conditions: Method 2, different laboratory (Table 4a2)
Procedure: The enzyme inhibitory activities of compounds disclosed herein are determined by FRET using synthetic peptides labelled with both donor and acceptor fluorophores (Z-LYTE, Invitrogen Ltd., Paisley, UK).
The inhibitory activities of test compounds against the p38 MAPKα isoform (MAPK14: Invitrogen), are evaluated indirectly by determining the level of activation/phosphorylation of the down-stream molecule, MAPKAP-K2. The p38 MAPKα protein (80 ng/mL, 2.5 μL) is mixed with the test compound (2.5 μL of either 4 μg/mL, 0.4 μg/mL, 0.04 μg/mL or 0.004 μg/mL) for 2 hr at RT. […] The mixture is incubated for 1 hr at RT. Development reagent (protease, 5 μL) is added for 1 hr prior to detection in a fluorescence microplate reader (Varioskan® Flash, ThermoFisher Scientific).
In all cases, the site-specific protease cleaves non-phosphorylated peptide only and eliminates the FRET signal. Phosphorylation levels of each reaction are calculated using the ratio of coumarin emission (donor) over fluorescein emission (acceptor), for which high ratios indicate high phosphorylation and low ratios indicate low phosphorylation levels.

[2] = tested on: β-catenin in d-U937 cells; assay: (m) Accumulation of β catenin in d-U937 cells; assay type: cell-based, human
Procedure: U937 cells, a human monocytic cell line, are differentiated into macrophage-type cells by incubation with PMA; (100 ng/mL) for between 48 to 72 hr. The cells are then incubated with either final concentrations of test compound or vehicle for 18 hr. The induction of β-catenin by the test compounds is stopped by replacing the media with 4% formaldehyde solution. Endogenous peroxide activity is neutralised by incubating with quenching buffer (100 μL, 0.1% sodium azide, 1% H2O2 in PBS with 0.05% Tween-20) for 20 min. The cells are washed with washing buffer (200 μL; PBS containing 0.05% Tween-20) and incubated with blocking solution (200 μL; 5% milk in PBS) for 1 hr, re-washed with washing buffer (200 μL) and then incubated overnight with anti-β-catenin antibody solution (50 μL) in 1% BSA/PBS (BD, Oxford, UK).
After washing with washing buffer (3×200 μL; PBS containing 0.05% Tween-20), cells are incubated with an HRP-conjugated secondary antibody solution (100 μL) in 1% BSA/PBS (Dako, Cambridge, UK) and the resultant signal is determined colourimetrically (OD: 450 nm with a reference wavelength of 655 nm) using TMB substrate (50 μL; R&D Systems, Abingdon, UK). This reaction is stopped by addition of 1N H2SO4 solution (50 μL). Cells are then washed with washing buffer and 2% crystal violet solution (50 μL) is applied for 30 min. After washing with washing buffer (3×200 μL), 1% SDS (100 μL) is added to each well and the plates are shaken lightly for 1 hr prior to measuring the absorbance at 595 nm (Varioskan® Flash, Thermo-Fisher Scientific).
The measured OD450-655 readings are corrected for cell number by dividing the OD450-655 by the OD595 readings. […] A signal less than 0.15 (15%) of that observed for the standard control is designated as “-ve”.

[3] = target: T1, p38 MAPKα isoform (MAPK14); assay: p38 MAPKα enzyme inhibition (FRET, Z-LYTE), Method 1; assay type: biochemical; conditions: Method 1 (Table 4a1)
[4] = tested on: Differentiated U937 cells; assay: (l) Cell viability: MTT assay; assay type: cell-based, human; conditions: 1 μg/mL
In short: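 MTT read-out (1 h, absorbance 550 nm) on d-U937 cells after pre-incubation with 1 or 10 μg/mL compound under two regimes: 4 h, 5% FCS, or 24 h, 10% FCS RPMI1640. Values are percent loss of viability relative to vehicle (0.5% DMSO), so increases are reported as negative.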

[5] = tested on: Balb/c mice; assay: (A) LPS-induced neutrophil accumulation in mice; assay type: in vivo, mouse; conditions: 1.75 μg/mouse
Procedure: […] At T=0, mice are placed into an exposure chamber and exposed to LPS (7.0 mL, 0.5 mg/mL solution in PBS) for 30 min). After a further 8 hr the animals are anesthetized, their tracheas cannulated and BALF extracted by infusing and then withdrawing from their lungs 1.0 mL of PBS via the tracheal catheter. Total and differential white cell counts in the BALF samples are measured using a Neubaur haemocytometer. Cytospin smears of the BALF samples are prepared by centrifugation at 200 rpm for 5 min at RT and stained using a DiffQuik stain system (Dade Behring). Cells are counted using oil immersion microscopy. Data for neutrophil numbers in BAL are shown as mean±S.E.M. (standard error of the mean). The percentage inhibition of neutrophil accumulation is calculated for each treatment relative to vehicle treatment.

[6] = tested on: mice; assay: Mouse cigarette smoke model (macrophage and neutrophil accumulation in BALF); assay type: in vivo; conditions: cigarette smoke model, 1.75 μg/mouse (35 μL, bid, i.n.)
From the text: The result of treatment with compound Example (8) on macrophage and neutrophil accumulation in BALF in the mouse cigarette smoke model was investigated (Table 5).

T1 sequence (Q16539 whole entry, canonical isoform): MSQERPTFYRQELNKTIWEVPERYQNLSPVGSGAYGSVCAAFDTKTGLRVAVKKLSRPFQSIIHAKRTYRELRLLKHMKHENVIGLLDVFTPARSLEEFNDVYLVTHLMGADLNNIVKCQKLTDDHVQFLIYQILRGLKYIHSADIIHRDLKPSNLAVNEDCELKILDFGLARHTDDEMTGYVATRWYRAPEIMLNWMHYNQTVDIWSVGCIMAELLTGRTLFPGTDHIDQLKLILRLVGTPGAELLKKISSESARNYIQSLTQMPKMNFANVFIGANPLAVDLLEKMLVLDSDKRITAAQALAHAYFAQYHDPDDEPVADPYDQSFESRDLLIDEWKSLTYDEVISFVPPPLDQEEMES

Row | SMILES | IC50 [1] | % β-catenin induction ([2]; 1 μg/mL test compound) | % β-catenin induction ([2]; 5 μg/mL test compound) | IC50 [3] | Cell viability at time point in d-U937 cells 4 h [4] | Cell viability at time point in d-U937 cells 24 h [4] | % β-catenin induction ([2]; 10 μg/mL test compound) | inhibition of LPS-induced neutrophil accumulation [5] | inhibition of neutrophil or macrophage accumulation into airways [6]
1 | C#Cc1cc(Nc2nccc(Oc3ccc(NC(=O)Nc4cc(C(C)(C)C)nn4-c4ccc(C)cc4)c4ccccc34)n2)cc(C(=O)NCCN2CCOCC2)c1 [Example 75, 3-((4-((4-(3-(3-(tert-Butyl)-1-(p-tolyl)-1H-pyrazol-5-yl)ureido)naphthalen-1-yl)oxy)pyrimidin-2-yl)amino)-5-ethynyl-N-(2-morpholinoethyl)benzamide] | 49 nM | −14% | −10% | – | – | – | – | – | –
2 | C#Cc1cc(Nc2nccc(Oc3ccc(NC(=O)Nc4cc(C(C)(C)C)nn4-c4ccc(C)cc4)c4ccccc34)n2)cc(C(=O)N[C@@H](C)CN2CCOCC2)c1 [Example 81, (S)-3-((4-((4-(3-(3-(tert-Butyl)-1-(p-tolyl)-1H-pyrazol-5-yl)ureido)naphthalen-1-yl)oxy)pyrimidin-2-yl)amino)-5-ethynyl-N-(1-morpholinopropan-2-yl)benzamide] | 138 nM | 3% | −3% | – | – | – | – | – | –
3 | COCCNC(=O)c1cc(Nc2nccc(Oc3ccc(NC(=O)Nc4cc(C(C)C)nn4-c4ccc(OC)cc4)c4ccccc34)n2)cc(OC)c1 [Example 11, 3-((4-((4-(3-(3-Isopropyl-1-(4-methoxyphenyl)-1H-pyrazol-5-yl)ureido)naphthalen-1-yl)oxy)pyrimidin-2-yl)amino)-5-methoxy-N-(2-methoxyethyl)benzamide] | 104 nM | −1% | 1% | 25 nM | −ve (−ve and +ve indicate that the value is below and above respectively, the no significant effect threshold, defined as 30% inhibition at 1 μg/mL at the time point indicated.) | −ve (−ve and +ve indicate that the value is below and above respectively, the no significant effect threshold, defined as 30% inhibition at 1 μg/mL at the time point indicated.) | 1% | – | –
4 | C#Cc1cc(Nc2nccc(Oc3ccc(NC(=O)Nc4cc(C(C)(C)C)nn4-c4ccc(OC)nc4)c4ccccc34)n2)cc(C(=O)NCCN2CCOCC2)c1 [Example 73, 3-((4-((4-(3-(3-(tert-Butyl)-1-(6-methoxypyridin-3-yl)-1H-pyrazol-5-yl)ureido)naphthalen-1-yl)oxy)pyrimidin-2-yl)amino)-5-ethynyl-N-(2-morpholinoethyl)benzamide] | 47 nM | 17% | −7% | – | – | – | 7% | – | –
5 | CCC(=O)O[C@]1(C(=O)SCF)[C@H](C)C[C@H]2[C@@H]3C[C@H](F)C4=CC(=O)C=C[C@]4(C)[C@@]3(F)[C@@H](O)C[C@@]21C [fluticasone propionate, reference compound] | – | – | – | – | – | – | – | > 80% | did not inhibit
6 | C#Cc1cc(Nc2nccc(Oc3ccc(NC(=O)Nc4cc(C(C)(C)C)nn4-c4ccc(OC)cc4)c4ccccc34)n2)cc(C(=O)N[C@@H](C)COC)c1 [Example 85, (S)-3-((4-((4-(3-(3-(tert-Butyl)-1-(4-methoxyphenyl)-1H-pyrazol-5-yl)ureido)-naphthalen-1-yl)oxy)pyrimidin-2-yl)amino)-5-ethynyl-N-(1-methoxypropan-2-yl)-benzamide] | 158 nM | 7% | 3% | – | – | – | 6% | – | –
7 | C#Cc1cc(Nc2nccc(Oc3ccc(NC(=O)Nc4cc(C(C)C)nn4-c4ccc(C)cc4)c(Cl)c3Cl)n2)cc(C(=O)NCCN2CCOCC2)c1 [Example 87, 3-((4-(2,3-Dichloro-4-(3-(3-isopropyl-1-(p-tolyl)-1H-pyrazol-5-yl)ureido)-phenoxy)pyrimidin-2-yl)amino)-5-ethynyl-N-(2-morpholinoethyl)benzamide] | 408 nM | – | – | – | – | – | – | – | –
8 | C#Cc1cc(Nc2nccc(Oc3ccc(NC(=O)Nc4cc(C(C)(C)C)nn4-c4ccc(C)cc4)c4ccccc34)n2)cc(C(=O)N[C@H](C)CN2CCOCC2)c1 [Example 83, (R)-3-((4-((4-(3-(3-(tert-Butyl)-1-(p-tolyl)-1H-pyrazol-5-yl)ureido)naphthalen-1-yl)oxy)pyrimidin-2-yl)amino)-5-ethynyl-N-(1-morpholinopropan-2-yl)benzamide] | 261 nM | −3% | −6% | – | – | – | – | – | –
9 | COc1cc(Nc2cc(Oc3ccc(NC(=O)Nc4cc(C(C)(C)C)nn4-c4ccc(C)cc4)c4ccccc34)ccn2)cc(C(=O)NCCN2CCOCC2)c1 [Example 1, 3-((4-((4-(3-(3-(tert-Butyl)-1-(p-tolyl)-1H-pyrazol-5-yl)ureido)naphthalen-1-yl)oxy)pyridin-2-yl)amino)-5-methoxy-N-(2-morpholinoethyl)benzamide] | 50 nM | −7% | −6% | 40 nM | −ve (−ve and +ve indicate that the value is below and above respectively, the no significant effect threshold, defined as 30% inhibition at 1 μg/mL at the time point indicated.) | −ve (−ve and +ve indicate that the value is below and above respectively, the no significant effect threshold, defined as 30% inhibition at 1 μg/mL at the time point indicated.) | – | – | –
10 | C#Cc1cc(Nc2nccc(Oc3ccc(NC(=O)Nc4cc(C(C)(C)C(F)(F)F)nn4-c4ccc(C)cc4)c4ccccc34)n2)cc(C(=O)NCCN2CCOCC2)c1 [Example 76, 3-Ethynyl-N-(2-morpholinoethyl)-5-((4-((4-(3-(1-(p-tolyl)-3-(1,1,1-trifluoro-2-methylpropan-2-yl)-1H-pyrazol-5-yl)ureido)naphthalen-1-yl)oxy)pyrimidin-2-yl)amino)-benzamide] | 233 nM | −3% | −1% | – | – | – | – | – | –
